Assay results from ChEMBL document CHEMBL1153384, “Synthesis, antimalarial activity, and preclinical pharmacology of a novel series of 4'-fluoro and 4'-chloro analogues of amodiaquine. Identification of a suitable "back-up" compound for N-tert-butyl isoquine” (J Med Chem, 2009).
One block for each compound: values may come before it.

Experiments:
Cytochrome P450 1A2 = biological target: T1, Cytochrome P450 1A2 (Homo sapiens, UniProt P05177); experiment: Inhibition of human CYP1A2; format: ADME
T1 sequence (P05177 whole entry): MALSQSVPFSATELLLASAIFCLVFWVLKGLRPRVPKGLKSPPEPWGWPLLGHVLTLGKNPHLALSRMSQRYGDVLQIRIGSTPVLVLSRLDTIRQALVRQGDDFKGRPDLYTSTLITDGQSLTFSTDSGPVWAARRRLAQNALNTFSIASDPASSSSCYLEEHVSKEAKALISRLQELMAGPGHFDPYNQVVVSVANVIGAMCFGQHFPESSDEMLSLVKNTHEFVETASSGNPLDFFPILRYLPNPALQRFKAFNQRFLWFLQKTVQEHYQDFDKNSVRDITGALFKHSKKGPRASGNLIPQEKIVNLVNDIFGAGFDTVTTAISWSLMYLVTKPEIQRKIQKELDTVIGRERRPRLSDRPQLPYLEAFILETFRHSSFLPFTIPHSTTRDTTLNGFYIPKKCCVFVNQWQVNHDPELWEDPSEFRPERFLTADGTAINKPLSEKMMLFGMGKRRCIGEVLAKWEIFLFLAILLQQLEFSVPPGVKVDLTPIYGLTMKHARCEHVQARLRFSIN

Cytochrome P450 2C9 = Cytochrome P450 2C9 (Homo sapiens, UniProt P11712); experiment: Inhibition of human CYP2C9; format: ADME
Cytochrome P450 2C9, sequence (P11712 whole entry): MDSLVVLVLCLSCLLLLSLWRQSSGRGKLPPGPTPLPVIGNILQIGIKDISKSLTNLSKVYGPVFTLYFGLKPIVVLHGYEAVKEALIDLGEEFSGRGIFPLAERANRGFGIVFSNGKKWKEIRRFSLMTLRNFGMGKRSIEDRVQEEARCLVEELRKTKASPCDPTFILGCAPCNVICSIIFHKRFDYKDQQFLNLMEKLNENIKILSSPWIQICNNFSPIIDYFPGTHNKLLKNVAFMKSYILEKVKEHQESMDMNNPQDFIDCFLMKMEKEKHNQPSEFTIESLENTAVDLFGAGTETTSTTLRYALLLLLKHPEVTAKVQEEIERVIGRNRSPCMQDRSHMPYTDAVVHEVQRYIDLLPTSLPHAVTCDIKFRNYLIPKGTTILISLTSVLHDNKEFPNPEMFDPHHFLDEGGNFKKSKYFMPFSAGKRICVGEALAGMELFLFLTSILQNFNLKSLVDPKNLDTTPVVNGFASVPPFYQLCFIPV

Cytochrome P450 3A4 [1] = biological target: T2, Cytochrome P450 3A4 (Homo sapiens, UniProt P08684); experiment: Inhibition of human CYP3A4 using PPR substrate; format: ADME
T2 sequence (P08684 whole entry): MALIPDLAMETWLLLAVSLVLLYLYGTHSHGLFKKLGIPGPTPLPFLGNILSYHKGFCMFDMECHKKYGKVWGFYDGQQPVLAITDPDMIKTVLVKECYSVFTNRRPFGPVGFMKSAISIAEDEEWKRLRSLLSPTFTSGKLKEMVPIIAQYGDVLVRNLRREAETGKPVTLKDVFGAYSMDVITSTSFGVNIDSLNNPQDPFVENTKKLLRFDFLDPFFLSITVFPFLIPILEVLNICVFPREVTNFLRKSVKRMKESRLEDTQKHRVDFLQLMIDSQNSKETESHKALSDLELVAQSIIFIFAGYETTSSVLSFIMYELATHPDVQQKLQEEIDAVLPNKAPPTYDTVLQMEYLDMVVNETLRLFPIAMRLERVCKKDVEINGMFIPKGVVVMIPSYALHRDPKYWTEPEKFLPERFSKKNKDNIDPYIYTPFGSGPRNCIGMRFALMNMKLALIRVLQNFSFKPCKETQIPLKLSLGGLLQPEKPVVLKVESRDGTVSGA

Plasmodium yoelii [2] = experiment: Antimalarial activity as minimal concentration for parasite elimination at day 23 against Plasmodium yoelii 17X intravenously inoculated CD1 mice (Mus musculus) dosed 1 hrs post infection then daily for 4 days
Cytochrome P450 2D6 = Cytochrome P450 2D6 (Homo sapiens, UniProt P10635); experiment: Inhibition of human CYP2D6; format: ADME
Cytochrome P450 2D6, sequence (P10635 whole entry): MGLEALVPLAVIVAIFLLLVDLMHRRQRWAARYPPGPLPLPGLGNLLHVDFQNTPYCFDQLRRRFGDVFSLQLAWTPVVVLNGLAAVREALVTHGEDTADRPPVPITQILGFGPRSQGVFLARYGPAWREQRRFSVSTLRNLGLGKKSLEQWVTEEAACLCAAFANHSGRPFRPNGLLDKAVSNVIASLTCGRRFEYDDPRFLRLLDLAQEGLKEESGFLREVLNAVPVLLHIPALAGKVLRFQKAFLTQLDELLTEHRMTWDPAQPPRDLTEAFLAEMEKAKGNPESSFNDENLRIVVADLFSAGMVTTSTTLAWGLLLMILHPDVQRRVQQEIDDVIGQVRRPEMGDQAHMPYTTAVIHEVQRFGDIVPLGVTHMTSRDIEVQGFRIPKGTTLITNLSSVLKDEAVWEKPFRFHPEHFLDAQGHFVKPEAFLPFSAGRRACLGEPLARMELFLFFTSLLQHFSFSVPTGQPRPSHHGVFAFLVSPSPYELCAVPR

[3] = Oral bioavailability in mouse; format: ADME, organism-based; details: in vivo
[4] = Clearance in iv dosed rat; format: ADME, organism-based; details: in vivo
[5] = Oral bioavailability in rat; format: ADME, organism-based; details: in vivo
Cytochrome P450 3A4 [6] = biological target: T2, Cytochrome P450 3A4; experiment: Inhibition of human CYP3A4 using DEF substrate
Plasmodium yoelii [7] = experiment: Antimalarial activity as reduced parasitaemia against Plasmodium yoelii 17X infected CD1 mice (Mus musculus) perorally dosed daily for 4 days; format: functional; details: po, 96 h
Plasmodium falciparum [8] = experiment: Antimalarial activity against chloroquine-sensitive Plasmodium falciparum 3D7; format: functional, organism-based
Plasmodium yoelii [9] = experiment: In vivo antimalarial activity against Plasmodium yoelii NS peroral dosage; format: functional; details: po
Cytochrome P450 2C8 = biological target: T3, Cytochrome P450 2C8 (Homo sapiens, UniProt P10632); experiment: Inhibition of human CYP2C8; format: ADME
T3 sequence (P10632 whole entry): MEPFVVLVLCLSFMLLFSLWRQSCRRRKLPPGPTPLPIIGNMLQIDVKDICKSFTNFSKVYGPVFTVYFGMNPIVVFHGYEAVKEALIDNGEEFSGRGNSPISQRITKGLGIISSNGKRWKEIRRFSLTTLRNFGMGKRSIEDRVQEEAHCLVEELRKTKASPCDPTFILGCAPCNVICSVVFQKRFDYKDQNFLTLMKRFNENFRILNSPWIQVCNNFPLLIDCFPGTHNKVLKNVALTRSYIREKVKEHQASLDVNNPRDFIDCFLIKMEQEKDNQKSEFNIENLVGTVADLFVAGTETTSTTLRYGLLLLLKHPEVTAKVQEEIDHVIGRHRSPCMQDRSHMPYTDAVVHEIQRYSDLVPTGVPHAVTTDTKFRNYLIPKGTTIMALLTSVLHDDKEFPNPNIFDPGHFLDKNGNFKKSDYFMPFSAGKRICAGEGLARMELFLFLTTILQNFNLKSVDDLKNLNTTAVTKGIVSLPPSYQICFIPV

Cytochrome P450 2C19 = Cytochrome P450 2C19 (Homo sapiens, UniProt P33261); experiment: Inhibition of human CYP2C19; format: ADME
Cytochrome P450 2C19, sequence (P33261 whole entry): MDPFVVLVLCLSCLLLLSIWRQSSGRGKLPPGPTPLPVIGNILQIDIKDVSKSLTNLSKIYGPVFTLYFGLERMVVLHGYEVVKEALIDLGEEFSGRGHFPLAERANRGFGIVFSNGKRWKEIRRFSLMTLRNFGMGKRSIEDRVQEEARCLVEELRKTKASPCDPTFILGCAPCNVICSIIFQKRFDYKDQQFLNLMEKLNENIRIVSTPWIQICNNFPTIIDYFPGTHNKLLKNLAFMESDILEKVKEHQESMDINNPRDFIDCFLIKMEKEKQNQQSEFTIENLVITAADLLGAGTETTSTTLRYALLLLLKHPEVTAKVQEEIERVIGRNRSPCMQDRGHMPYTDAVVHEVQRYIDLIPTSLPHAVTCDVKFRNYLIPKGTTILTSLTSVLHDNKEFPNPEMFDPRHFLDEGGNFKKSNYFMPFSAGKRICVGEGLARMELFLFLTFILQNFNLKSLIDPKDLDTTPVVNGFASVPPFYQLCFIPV

[10] = Clearance in iv dosed mouse; format: ADME, organism-based; details: in vivo
Plasmodium falciparum [11] = experiment: Antimalarial activity against chloroquine-sensitive Plasmodium falciparum HB3; format: functional, organism-based
Plasmodium falciparum [12] = experiment: Antimalarial activity against chloroquine-resistant Plasmodium falciparum TM6; format: functional, organism-based
[13] = Partition coefficient, log P of the compound; format: physicochemical; details: octanol/water
[14] = biological target: β-hematin formation (no protein target); experiment: Inhibition of beta-hematin formation as molar equivalent relative to hemin causing blockade in BHIA
Heme [15] = experiment: Binding affinity to heme assessed as binding constant for stepwise binding of 2 equivalent of drug to 1 molecule of heme in presence of 40% DMSO by UV-visible spectroscopy
Heme [16] = experiment: Binding affinity to heme assessed as binding constant for stepwise binding of 2 molecules of heme to 1 equivalent of drug in presence of 40% DMSO by UV-visible spectroscopy
Mus musculus [17] = experiment: Toxicity in po dosed mouse assessed as induction of hepatotoxicity at drug dose above no observed adverse effects level; format: organism-based; details: in vivo
Mus musculus [18] = experiment: Toxicity in po dosed mouse assessed as induction of hematological toxicity at drug dose above no observed adverse effects level; format: organism-based; details: in vivo
[19] = Toxicity in po dosed mouse assessed as drug level causing no observed adverse effects administered as single dose; format: organism-based; details: in vivo, read-out: Activity
[20] = Toxicity in po dosed mouse assessed as drug level causing no observed adverse effects administered as once daily for 4 days; format: organism-based; details: in vivo, read-out: Activity
Plasmodium falciparum [21] = experiment: Antimalarial activity against chloroquine-resistant Plasmodium falciparum V1/S; format: functional, organism-based; details: V1S
[22] = Toxicity against Wistar rat hepatocytes after 6 hrs by trypan blue exclusion method; format: cell-based, Hepatocyte; details: read-out: TC50
Cytochrome P450 3A4 [23] = biological target: T2, Cytochrome P450 3A4; experiment: Inhibition of human CYP3A4 using DEF substrate; format: ADME
[24] = Distribution coefficient, log D at pH 7.4; details: octanol/water
Plasmodium falciparum [25] = experiment: Antimalarial activity against chloroquine-resistant Plasmodium falciparum J164; format: functional, organism-based
Mus musculus [26] = experiment: Toxicity in po dosed mouse assessed as maximal nonlethal dose administered as single dose; format: organism-based; details: in vivo

- IC50 (Cytochrome P450 1A2): 23 µM
- IC50 (Cytochrome P450 2C9): 75 µM
- IC50 (Cytochrome P450 3A4 [1]): Active
- IC50 (Cytochrome P450 2D6): 7 µM
- bioavailability [3]: 21%
- clearance [4]: 89.2 mL/min/kg
- bioavailability [5]: 17%
- IC50 (Cytochrome P450 3A4 [6]): > 100 µM
- IC50 (Plasmodium falciparum [8]): 7.8 nM
- IC50 (Cytochrome P450 2C8): 13 µM
- IC50 (Cytochrome P450 2C19): 39 µM
- clearance [10]: 219 mL/min/kg
Compound: CCN(CC)Cc1ccc(Nc2ccnc3cc(Cl)ccc23)cc1O [ISOQUINE]
- Activity (Plasmodium yoelii [2]): >40 mg/kg
- ED50 (Plasmodium yoelii [7]): 5.2 mg/kg
- ED90 (Plasmodium yoelii [7]): 7.6 mg/kg
- ED50 (Plasmodium yoelii [9]): 1.6 mg/kg

- IC50 (Plasmodium falciparum [8]): 85.2 nM
Compound: CCCN(CCC)Cc1cc(Nc2ccnc3cc(Cl)ccc23)ccc1F

- IC50 (Plasmodium falciparum [8]): 27.3 nM
Compound: CCN(CC)Cc1cc(Nc2ccnc3cc(Cl)ccc23)ccc1F

- IC50 (Plasmodium falciparum [8]): 277 nM
Compound: CCCN(CCC)Cc1cc(Nc2ccnc3cc(Cl)ccc23)ccc1Cl

- IC50 (Plasmodium falciparum [8]): 6 nM
Compound: CC(C)(C)NCc1ccc(Nc2ccnc3cc(Cl)ccc23)cc1O

Compound: CCCCN(CCCC)Cc1cc(Nc2ccnc3cc(Cl)ccc23)ccc1Cl
- IC50 (Plasmodium falciparum [11]): 144 nM
- IC50 (Plasmodium falciparum [8]): 345 nM
- IC50 (Plasmodium falciparum [12]): 96.3 nM

Compound: CN1CCN(Cc2cc(Nc3ccnc4cc(Cl)ccc34)ccc2Cl)CC1
- IC50 (Plasmodium falciparum [11]): 54.5 nM
- IC50 (Plasmodium falciparum [8]): 86.8 nM
- IC50 (Plasmodium falciparum [12]): 24.4 nM

Compound: CC(C)N1CCN(Cc2cc(Nc3ccnc4cc(Cl)ccc34)ccc2Cl)CC1
- logP [13]: 5.14
- IC50 (Plasmodium falciparum [11]): 9.1 nM
- IC50 [14]: 1.66 molar ratio
- IC50 (Plasmodium falciparum [12]): 6.4 nM

Compound: O=C(NCc1cc([N+](=O)[O-])ccc1F)c1ncc[nH]1
- IC50 (Plasmodium falciparum [11]): 10.1 nM
- IC50 (Plasmodium falciparum [12]): 5 nM

- log Ks (Heme [15]): 4.4
- log Ks (Heme [16]): 4.1
Compound: C=C[C@H]1CN2CC[C@H]1C[C@H]2[C@H](O)c1ccnc2ccc(OC)cc12

Compound: CCN(CC)CCCC(C)Nc1ccnc2cc(Cl)ccc12 (stereo unspecified) [CHLOROQUINE]
- Activity (Mus musculus [17]): Toxic
- Activity (Mus musculus [18]): Toxic
- NOAEL [19]: 300 mg/kg
- NOAEL at 96 h [20]: 300 mg/kg

Compound: Clc1ccc2c(Nc3ccc(Cl)c(CN4CCCCC4)c3)ccnc2c1
- IC50 (Plasmodium falciparum [11]): 12.3 nM
- IC50 (Plasmodium falciparum [8]): 25.7 nM
- IC50 (Plasmodium falciparum [12]): 9.4 nM

- IC50 (Plasmodium falciparum [8]): 95.2 nM
Compound: CCCCN(CCCC)Cc1cc(Nc2ccnc3cc(Cl)ccc23)ccc1F

Compound: CCN(CC)Cc1cc(Nc2ccnc3cc(Cl)ccc23)ccc1O.Cl
- IC50 (Plasmodium falciparum [21]): 8.9 nM
- CC50 at 6 h [22]: 78 µM
- IC50 (Cytochrome P450 3A4 [23]): 28 µM
- logD [24]: 3.08
- IC50 (Cytochrome P450 3A4 [1]; read-out: IC50): > 100 µM
- Activity (Mus musculus [17]): Toxic
- Activity (Mus musculus [18]): Toxic
- logP [13]: 4.37
- IC50 (Plasmodium falciparum [11]): 5.5 nM
- NOAEL [19]: 100 mg/kg
- ED50 (Plasmodium yoelii [9]): 7.4 mg/kg
- IC50 (Plasmodium falciparum [25]): 18.5 nM
- Activity (Mus musculus [26]): > 500 mg/kg
- log Ks (Heme [15]): 4.4
- IC50 (Plasmodium falciparum [12]): 7.2 nM
- log Ks (Heme [16]): 6.2
- NOAEL at 96 h [20]: 100 mg/kg

Compound: Clc1ccc2c(Nc3ccc(Cl)c(CN4CCCC4)c3)ccnc2c1
- IC50 (Plasmodium falciparum [11]): 15.2 nM
- IC50 (Plasmodium falciparum [12]): 4.2 nM
